Reference: PMC7026418, “The kinase polypharmacology landscape of clinical PARP inhibitors” (Scientific Reports, 2020)
Read-outs that look alike come from different tables or passages of the source.

Legend:
Assay in all cases: biochemical
Design in all cases: DiscoveRx KINOMEscan active site-directed competition binding; percent of control kinase bound to immobilised ligand
BTK = BTK (Homo sapiens, UniProt Q06187)
CLK4 = CLK4 (Homo sapiens, UniProt Q9HAZ1)
PRKG2 = molecular target: T1, PRKG2 (Homo sapiens, UniProt Q13237)
T1 sequence (Q13237 1-762): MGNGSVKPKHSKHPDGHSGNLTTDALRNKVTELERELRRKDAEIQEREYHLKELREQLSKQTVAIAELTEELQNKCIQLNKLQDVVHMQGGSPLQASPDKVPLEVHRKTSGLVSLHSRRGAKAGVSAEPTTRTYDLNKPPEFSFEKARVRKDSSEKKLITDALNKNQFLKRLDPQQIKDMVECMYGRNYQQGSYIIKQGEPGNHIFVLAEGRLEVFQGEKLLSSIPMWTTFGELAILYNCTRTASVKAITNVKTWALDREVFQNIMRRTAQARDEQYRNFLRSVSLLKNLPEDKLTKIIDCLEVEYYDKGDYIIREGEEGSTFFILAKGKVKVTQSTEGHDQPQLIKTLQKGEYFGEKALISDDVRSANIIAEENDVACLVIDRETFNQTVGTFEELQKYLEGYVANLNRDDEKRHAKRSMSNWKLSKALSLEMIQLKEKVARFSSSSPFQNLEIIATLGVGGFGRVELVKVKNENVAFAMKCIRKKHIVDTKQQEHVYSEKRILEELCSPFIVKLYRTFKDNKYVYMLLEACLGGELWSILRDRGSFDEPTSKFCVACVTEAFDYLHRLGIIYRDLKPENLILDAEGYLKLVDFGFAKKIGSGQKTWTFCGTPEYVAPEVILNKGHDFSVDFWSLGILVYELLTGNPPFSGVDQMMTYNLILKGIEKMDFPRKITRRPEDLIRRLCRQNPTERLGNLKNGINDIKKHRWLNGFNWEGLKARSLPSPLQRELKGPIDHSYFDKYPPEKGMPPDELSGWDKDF

PIM2 = PIM2 (Homo sapiens, UniProt Q9P1W9)
MAST1 = MAST1 (Homo sapiens, UniProt Q9Y2H9)
PIK3CA = PIK3CA (Homo sapiens, UniProt P42336)
BRSK2 = molecular target: T2, BRSK2 (Homo sapiens, UniProt Q8IWQ3)
T2 sequence (Q8IWQ3 1-736): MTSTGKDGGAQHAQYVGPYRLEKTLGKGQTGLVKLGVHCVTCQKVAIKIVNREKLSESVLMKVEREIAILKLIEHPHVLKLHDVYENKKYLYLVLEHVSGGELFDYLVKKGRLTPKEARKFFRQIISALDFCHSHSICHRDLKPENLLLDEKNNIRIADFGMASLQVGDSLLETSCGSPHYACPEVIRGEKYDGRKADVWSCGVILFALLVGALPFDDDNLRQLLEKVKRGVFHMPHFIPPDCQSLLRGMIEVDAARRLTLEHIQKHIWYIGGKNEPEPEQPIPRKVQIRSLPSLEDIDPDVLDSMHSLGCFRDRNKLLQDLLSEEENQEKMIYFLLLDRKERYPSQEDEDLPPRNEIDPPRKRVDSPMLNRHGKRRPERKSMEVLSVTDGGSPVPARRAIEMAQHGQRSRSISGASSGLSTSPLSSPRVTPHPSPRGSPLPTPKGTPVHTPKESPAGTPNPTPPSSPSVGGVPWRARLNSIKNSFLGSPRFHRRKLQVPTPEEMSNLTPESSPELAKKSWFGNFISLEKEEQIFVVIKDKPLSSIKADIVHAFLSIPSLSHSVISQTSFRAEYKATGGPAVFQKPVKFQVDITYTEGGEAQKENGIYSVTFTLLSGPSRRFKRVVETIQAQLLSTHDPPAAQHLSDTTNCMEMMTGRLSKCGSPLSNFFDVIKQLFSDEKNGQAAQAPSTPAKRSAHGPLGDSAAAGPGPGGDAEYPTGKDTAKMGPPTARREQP

MAP4K2 = molecular target: T3, MAP4K2 (Homo sapiens, UniProt Q12851)
T3 sequence (Q12851 1-820): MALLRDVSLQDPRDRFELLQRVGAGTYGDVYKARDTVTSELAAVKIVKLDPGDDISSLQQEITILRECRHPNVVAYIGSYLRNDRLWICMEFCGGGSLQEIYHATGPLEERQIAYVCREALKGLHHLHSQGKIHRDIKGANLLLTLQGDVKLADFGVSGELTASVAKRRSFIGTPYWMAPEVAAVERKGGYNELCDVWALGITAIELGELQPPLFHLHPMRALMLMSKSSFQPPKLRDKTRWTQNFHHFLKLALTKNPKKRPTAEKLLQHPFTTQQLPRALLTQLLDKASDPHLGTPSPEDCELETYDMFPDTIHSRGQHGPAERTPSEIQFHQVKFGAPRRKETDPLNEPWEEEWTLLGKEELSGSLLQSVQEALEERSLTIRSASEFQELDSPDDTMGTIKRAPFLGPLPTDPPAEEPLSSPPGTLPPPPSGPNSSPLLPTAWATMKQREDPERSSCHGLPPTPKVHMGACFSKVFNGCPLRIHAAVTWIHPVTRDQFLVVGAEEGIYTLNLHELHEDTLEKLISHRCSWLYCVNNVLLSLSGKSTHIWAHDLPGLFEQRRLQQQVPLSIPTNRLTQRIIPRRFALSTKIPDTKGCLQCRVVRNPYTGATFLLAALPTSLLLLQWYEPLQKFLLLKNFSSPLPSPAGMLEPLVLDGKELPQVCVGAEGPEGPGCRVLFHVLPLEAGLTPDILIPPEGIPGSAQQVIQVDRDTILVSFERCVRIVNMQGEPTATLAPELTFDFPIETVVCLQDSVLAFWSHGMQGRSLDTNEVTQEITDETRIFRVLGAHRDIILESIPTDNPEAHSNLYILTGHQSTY

[1] = read-out: Talazoparib (BMN 673) / %Ctrl @ 10000nM
[2] = read-out: Olaparib / %Ctrl @ 10000nM
[3] = read-out: Rucaparib / %Ctrl @ 10000nM, binding competition, % of control
[4] = read-out: Niraparib (MK-4827) / %Ctrl @ 10000nM

Chain of PIM2 (Q9P1W9 whole entry): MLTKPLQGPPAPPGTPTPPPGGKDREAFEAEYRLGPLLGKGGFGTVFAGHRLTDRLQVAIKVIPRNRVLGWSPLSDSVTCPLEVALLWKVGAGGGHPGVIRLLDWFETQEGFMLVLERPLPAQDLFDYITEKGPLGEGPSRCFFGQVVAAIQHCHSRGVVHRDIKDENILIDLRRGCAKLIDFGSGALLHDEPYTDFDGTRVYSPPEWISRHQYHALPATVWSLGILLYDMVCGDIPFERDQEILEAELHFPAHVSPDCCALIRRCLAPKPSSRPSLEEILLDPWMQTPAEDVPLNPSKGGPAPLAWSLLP
Chain of PIK3CA (P42336 whole entry): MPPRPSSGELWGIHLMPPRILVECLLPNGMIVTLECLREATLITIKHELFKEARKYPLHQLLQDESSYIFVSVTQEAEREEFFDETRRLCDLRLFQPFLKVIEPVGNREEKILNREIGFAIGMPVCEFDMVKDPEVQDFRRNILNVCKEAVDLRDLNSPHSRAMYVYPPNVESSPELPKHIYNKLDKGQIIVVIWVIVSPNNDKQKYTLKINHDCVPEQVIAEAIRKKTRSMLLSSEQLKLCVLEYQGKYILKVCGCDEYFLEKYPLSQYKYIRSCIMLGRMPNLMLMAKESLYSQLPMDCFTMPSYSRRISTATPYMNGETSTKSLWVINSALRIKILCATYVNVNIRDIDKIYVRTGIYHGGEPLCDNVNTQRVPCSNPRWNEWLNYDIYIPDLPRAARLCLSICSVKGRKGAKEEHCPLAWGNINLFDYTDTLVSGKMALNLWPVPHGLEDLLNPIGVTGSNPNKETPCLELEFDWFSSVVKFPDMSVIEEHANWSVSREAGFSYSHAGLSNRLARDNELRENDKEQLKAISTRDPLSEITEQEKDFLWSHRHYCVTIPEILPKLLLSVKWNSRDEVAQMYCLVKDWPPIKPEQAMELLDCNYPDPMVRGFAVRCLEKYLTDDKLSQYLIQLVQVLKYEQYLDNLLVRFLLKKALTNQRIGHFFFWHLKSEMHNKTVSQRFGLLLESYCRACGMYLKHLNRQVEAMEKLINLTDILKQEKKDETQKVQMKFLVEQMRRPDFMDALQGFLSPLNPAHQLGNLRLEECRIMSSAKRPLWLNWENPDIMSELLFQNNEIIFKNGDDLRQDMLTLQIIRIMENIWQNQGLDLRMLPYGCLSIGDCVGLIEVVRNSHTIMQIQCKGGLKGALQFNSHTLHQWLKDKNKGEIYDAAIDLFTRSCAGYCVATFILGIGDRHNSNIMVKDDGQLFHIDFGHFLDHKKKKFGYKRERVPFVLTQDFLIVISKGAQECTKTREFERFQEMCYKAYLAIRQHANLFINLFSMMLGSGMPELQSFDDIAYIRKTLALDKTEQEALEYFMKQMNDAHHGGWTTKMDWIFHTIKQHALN
Chain of MAST1 (Q9Y2H9 whole entry): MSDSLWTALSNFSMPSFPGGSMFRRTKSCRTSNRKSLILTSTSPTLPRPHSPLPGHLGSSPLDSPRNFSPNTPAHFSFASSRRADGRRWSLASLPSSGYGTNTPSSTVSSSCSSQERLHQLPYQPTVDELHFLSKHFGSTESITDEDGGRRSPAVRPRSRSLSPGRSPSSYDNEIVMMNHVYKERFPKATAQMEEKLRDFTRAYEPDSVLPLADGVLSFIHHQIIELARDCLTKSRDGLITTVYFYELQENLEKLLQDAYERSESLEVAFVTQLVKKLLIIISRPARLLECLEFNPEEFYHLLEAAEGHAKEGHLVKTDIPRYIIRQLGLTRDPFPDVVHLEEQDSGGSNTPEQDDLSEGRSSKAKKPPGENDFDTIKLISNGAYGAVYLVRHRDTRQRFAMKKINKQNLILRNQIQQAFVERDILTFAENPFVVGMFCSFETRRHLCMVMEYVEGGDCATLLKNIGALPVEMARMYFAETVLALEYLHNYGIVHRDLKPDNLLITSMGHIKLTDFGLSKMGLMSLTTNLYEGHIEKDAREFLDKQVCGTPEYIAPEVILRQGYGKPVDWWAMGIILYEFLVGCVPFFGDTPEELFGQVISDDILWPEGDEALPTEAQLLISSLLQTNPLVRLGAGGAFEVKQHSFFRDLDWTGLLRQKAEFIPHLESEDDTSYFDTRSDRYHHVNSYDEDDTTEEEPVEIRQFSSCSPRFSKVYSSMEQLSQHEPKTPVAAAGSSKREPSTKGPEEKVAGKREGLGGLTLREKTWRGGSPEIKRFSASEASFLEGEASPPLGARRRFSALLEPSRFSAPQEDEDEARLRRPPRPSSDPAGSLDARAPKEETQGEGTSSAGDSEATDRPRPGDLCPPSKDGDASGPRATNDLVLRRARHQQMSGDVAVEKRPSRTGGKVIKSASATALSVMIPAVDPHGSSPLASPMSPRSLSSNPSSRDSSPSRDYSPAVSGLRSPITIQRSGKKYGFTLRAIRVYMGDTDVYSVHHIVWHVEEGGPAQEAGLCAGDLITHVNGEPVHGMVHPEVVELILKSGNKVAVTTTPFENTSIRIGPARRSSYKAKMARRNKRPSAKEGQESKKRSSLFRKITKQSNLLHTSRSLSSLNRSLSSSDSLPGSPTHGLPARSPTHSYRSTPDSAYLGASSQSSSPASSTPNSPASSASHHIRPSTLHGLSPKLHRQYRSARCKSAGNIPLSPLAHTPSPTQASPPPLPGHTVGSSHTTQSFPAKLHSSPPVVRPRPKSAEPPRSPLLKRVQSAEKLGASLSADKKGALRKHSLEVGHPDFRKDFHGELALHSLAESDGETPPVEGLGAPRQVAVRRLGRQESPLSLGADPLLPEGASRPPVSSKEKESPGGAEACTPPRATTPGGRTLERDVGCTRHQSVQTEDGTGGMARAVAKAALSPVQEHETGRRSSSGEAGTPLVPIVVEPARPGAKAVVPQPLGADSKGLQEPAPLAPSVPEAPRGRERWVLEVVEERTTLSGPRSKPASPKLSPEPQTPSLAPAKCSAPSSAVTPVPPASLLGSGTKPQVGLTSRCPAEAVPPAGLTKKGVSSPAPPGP
Chain of BTK (Q06187 whole entry): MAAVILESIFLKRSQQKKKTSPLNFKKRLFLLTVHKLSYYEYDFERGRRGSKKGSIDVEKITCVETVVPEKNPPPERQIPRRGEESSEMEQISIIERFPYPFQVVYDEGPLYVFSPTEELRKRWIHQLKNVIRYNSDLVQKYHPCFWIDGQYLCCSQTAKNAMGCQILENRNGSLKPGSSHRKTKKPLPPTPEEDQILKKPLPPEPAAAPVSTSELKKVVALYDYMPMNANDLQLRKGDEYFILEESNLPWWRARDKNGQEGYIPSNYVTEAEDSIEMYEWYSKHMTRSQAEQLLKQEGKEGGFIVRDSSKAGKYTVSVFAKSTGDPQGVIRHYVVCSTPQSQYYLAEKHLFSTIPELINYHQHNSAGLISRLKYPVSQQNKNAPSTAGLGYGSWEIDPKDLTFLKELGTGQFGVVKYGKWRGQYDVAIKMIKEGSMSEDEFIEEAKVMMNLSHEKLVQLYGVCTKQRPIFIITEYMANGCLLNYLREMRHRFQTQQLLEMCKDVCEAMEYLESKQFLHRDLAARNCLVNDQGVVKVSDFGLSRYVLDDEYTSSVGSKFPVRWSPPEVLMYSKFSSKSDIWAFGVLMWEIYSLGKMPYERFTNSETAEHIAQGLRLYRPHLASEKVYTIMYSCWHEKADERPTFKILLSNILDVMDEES
Chain of CLK4 (Q9HAZ1 whole entry): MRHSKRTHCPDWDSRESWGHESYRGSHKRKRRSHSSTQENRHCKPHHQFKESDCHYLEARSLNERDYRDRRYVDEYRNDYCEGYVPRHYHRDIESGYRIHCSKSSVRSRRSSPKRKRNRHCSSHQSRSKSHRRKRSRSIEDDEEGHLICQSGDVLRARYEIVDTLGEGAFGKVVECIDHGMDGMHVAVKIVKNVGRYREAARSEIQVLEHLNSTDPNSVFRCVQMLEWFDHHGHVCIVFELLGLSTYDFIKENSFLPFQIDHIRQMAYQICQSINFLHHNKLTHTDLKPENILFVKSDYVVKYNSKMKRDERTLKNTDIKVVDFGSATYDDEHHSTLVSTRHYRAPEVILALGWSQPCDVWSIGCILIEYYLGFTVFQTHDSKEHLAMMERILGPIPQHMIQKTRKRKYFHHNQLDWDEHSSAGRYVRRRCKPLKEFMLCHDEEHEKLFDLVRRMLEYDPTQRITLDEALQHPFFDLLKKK

Q: For `Cn1ncnc1[C@H]1c2n[nH]c(=O)c3cc(F)cc(c23)N[C@@H]1c1ccc(F)cc1` [Talazoparib], which percent of control binding at 10 µM (BTK; [1]) is on record?
A: 100%

Q: And the percent of control binding at 10 µM (CLK4; [1])?
A: 100%

Q: And the percent of control binding at 10 µM (PRKG2; [1])?
A: 100%

Q: What about the percent of control binding at 10 µM (PIM2; [1]) of the same molecule?
A: 98%

Q: And the percent of control binding at 10 µM (MAST1; [1])?
A: 100%

Q: And the percent of control binding at 10 µM (PIK3CA; [1])?
A: 59%

Q: What about the percent of control binding at 10 µM (BRSK2; [1]) of the same molecule?
A: 63%

Q: What about the percent of control binding at 10 µM (MAP4K2; [1]) of the same molecule?
A: 94%

Q: Which results are given for `O=C(c1cc(Cc2n[nH]c(=O)c3ccccc23)ccc1F)N1CCN(C(=O)C2CC2)CC1` [Olaparib]?
A: percent of control binding at 10 µM (BTK; [2]): 86%; percent of control binding at 10 µM (CLK4; [2]): 92%; percent of control binding at 10 µM (PRKG2; [2]): 85%; percent of control binding at 10 µM (PIM2; [2]): 100%; percent of control binding at 10 µM (MAST1; [2]): 86%; percent of control binding at 10 µM (PIK3CA; [2]): 87%; percent of control binding at 10 µM (BRSK2; [2]): 95%; percent of control binding at 10 µM (MAP4K2; [2]): 97%

Q: Which results are given for `CNCc1ccc(-c2[nH]c3cc(F)cc4c3c2CCNC4=O)cc1` [Rucaparib]?
A: percent of control binding at 10 µM (BTK; [3]): 83%; percent of control binding at 10 µM (CLK4; [3]): 40%; percent of control binding at 10 µM (PRKG2; [3]): 60%; percent of control binding at 10 µM (PIM2; [3]): 36%; percent of control binding at 10 µM (MAST1; [3]): 79%; percent of control binding at 10 µM (PIK3CA; [3]): 91%; percent of control binding at 10 µM (BRSK2; [3]): 76%; percent of control binding at 10 µM (MAP4K2; [3]): 79%

Q: Which percent of control binding at 10 µM (BTK; [4]) does the source give for `NC(=O)c1cccc2cn(-c3ccc([C@@H]4CCCNC4)cc3)nc12` [Niraparib] here?
A: 95%

Q: And the percent of control binding at 10 µM (CLK4; [4])?
A: 52%

Q: What about the percent of control binding at 10 µM (PRKG2; [4]) of the same molecule?
A: 97%

Q: What about the percent of control binding at 10 µM (PIM2; [4]) of the same molecule?
A: 13%

Q: And the percent of control binding at 10 µM (MAST1; [4])?
A: 91%

Q: What about the percent of control binding at 10 µM (PIK3CA; [4]) of the same molecule?
A: 100%

Q: What about the percent of control binding at 10 µM (BRSK2; [4]) of the same molecule?
A: 91%

Q: What about the percent of control binding at 10 µM (MAP4K2; [4]) of the same molecule?
A: 83%
